This is an account of results in PubChem BioAssay (NCI).

In the assay the test system is P388 leukemia. The assay is described as follows: NCI tumour cell line growth inhibition, 48 h.

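Method: 48-hour compound exposure of cells in 96-well plates, five concentrations, linear interpolation of endpoints. TGI: concentration producing complete growth inhibition.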

As to `CC1CCC(NC(=O)N(CCCl)N=O)CC1` (configuration not stated), the TGI was 55.8 µM.

Compound `COc1cc(C[C@H]2c3cc(OC)c(OC)cc3CCN2C)c(Oc2cc3c(cc2OC)-c2c(OC)c(OC)cc4c2[C@H](C3)N(C)CC4)cc1OC` came in with a TGI of 22 µM.
